Reference: publication PMC6515479, “An Investigation on Glucuronidation Metabolite Identification, Isozyme Contribution, and Species Differences of GL-V9 In Vitro and In Vivo” (Molecules, 2019)

Assays:
Type in all cases: in vitro ADME
[1] = Enzyme kinetics of GL-V9 glucuronidation in monkey liver microsomes (MLMs); conditions: monkey, liver microsomes, pH 7.4; formation of 5-O-glucuronide GL-V9; MLMs, protein 0.1 mg/mL; mean ± SD, n = 3
Method: (§1) The composition of the incubation system (200 μL) contained liver microsomes of different species (0.1 mg protein/mL), 5 mM saccharolactone (D-saccharic acid 1,4-lactone monohydrate), 10 mM MgCl2, alamethicin (50 μg/mg protein), Tris-HCl buffer (50 mM, pH 7.4) and GL-V9 (1 μM). After 5 min of preincubation at 37 °C, UDPGA (5 mM) was added to initiate the phase II reaction. Control incubation samples were performed without UDPGA or without substrates (GL-V9). The reaction was terminated by addition of ice-cold methanol (three volumes) after incubation for 1 h at 37 °C. Samples were vortexed, centrifuged at 21,500× g for 10 min and then stored at 4 °C until HPLC-UV-TripleTOF analysis. To confirm that these metabolites are conjugates resulting from glucuronidation reaction, enzymatic hydrolysis of samples was processed. β-glucuronidase (100 KU, Sigma) was added and the hydrolysis was performed overnight at 37 °C. The control samples were carried out without β-glucuronidase under the same condition.
(§2) Enzyme kinetics experiments were carried out in triplicate among five different species, including monkey, beagle dog, rat, mouse, and human. The reaction system and operations are as same as described in Section 4.3. The solutions of GL-V9 were selected over a range of concentrations (0.05, 0.2, 0.5, 1, 2, 5, 10, 20 μM). According to the different metabolic capacity, the protein concentration of liver microsomes of different species is different as shown in Table 1.
(§3) Rates of the glucuronidation of GL-V9 were described as amounts of glucuronides formed per minute per milligram (pmol/min/mg). The calculation model of kinetic parameters was selected by the profile of Eadie-Hofstee plots. It often includes three possibilities: (1) the Eadie-Hofstee plot was linear, the formation rates of glucuronides (V) at different substrate concentrations (C) were fit to the standard Michaelis-Menten calculation of GraphPad Prism (version 6.02, GraphPad Software Inc., Guildford, Surrey, UK); (2) the Eadie-Hofstee plot was atypical kinetic-autoactivation, the rates and concentration were fit with the allosteric sigmoidal function of GraphPad Prism; (3) the Eadie-Hofstee plot was atypical kinetic-biphasic, the rates and concentration were fit with the […] of GraphPad Prism.

[2] = system: monkey liver microsomes (MLMs); experiment: as above
Method: as §1, §2, §3

[3] = system: human liver microsomes (HLMs); experiment: Enzyme kinetics of GL-V9 glucuronidation in human liver microsomes (HLMs); conditions: formation of 5-O-glucuronide GL-V9, protein 0.075 mg/mL, mean ± SD, n = 3
Method: as §1
as §2, with “According to the different metabolic capacity, the protein concentration of liver microsomes of different species is different as shown in Table 1.” left out

[4] = as above; conditions: human, liver microsomes, pH 7.4, formation of 5-O-glucuronide GL-V9, protein 0.075 mg/mL, mean ± SD, n = 3
Method: as §1
as §2, with “According to the different metabolic capacity, the protein concentration of liver microsomes of different species is different as shown in Table 1.” left out

rUGT1A10 = target: T1, rUGT1A10 (Homo sapiens, UniProt Q9HAW8); experiment: UGT phenotyping of GL-V9 glucuronidation, rUGT1A10; conditions: GL-V9 0.5, 1, 5 μM, 37 °C, 1 h
T1 construct: purchased Corning (Woburn, MA, USA)
T1 sequence (Q9HAW8 26-530): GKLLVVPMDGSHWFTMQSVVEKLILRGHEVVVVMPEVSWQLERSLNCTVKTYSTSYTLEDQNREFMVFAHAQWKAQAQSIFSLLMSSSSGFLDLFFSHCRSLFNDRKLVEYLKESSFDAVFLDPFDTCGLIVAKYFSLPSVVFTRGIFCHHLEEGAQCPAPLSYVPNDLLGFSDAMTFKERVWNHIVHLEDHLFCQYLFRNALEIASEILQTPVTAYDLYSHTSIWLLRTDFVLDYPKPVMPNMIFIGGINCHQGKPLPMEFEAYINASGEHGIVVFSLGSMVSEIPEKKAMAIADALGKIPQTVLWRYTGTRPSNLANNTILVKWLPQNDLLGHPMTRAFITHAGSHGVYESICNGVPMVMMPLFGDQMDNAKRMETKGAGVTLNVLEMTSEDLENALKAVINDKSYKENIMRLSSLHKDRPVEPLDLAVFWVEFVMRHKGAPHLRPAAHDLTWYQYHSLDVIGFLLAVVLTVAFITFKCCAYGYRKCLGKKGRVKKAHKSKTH
Method: as §1
Twelve human recombinant UGT isoforms (rUGT1A1, rUGT1A3, rUGT1A4, rUGT1A6, rUGT1A7, rUGT1A8, rUGT1A9, rUGT1A10, rUGT2B4, rUGT2B7, rUGT2B15, and rUGT2B17) were employed to identify the main UGT enzyme(s) responsible for glucuronidation of GL-V9 under mixture conditions as described in Section 4.3. […]

Km at 1 h [1]: 11.2 ± 0.47 µM | Clint in MLMs relative to DLMs ([2]; MLMs versus DLMs): approximately 9 fold | Glucuronidation rate in MLMs relative to DLMs ([2]; MLMs versus DLMs): > 8 fold | Vmax ([2]; formation of 5-O-glucuronide GL-V9, MLMs, protein 0.1 mg/mL, mean ± SD, n = 3): 182.5 ± 4.92 pmol/min/mg | Vmax [3]: 88.49 ± 4.21 pmol/min/mg | Km at 1 h [4]: 11.2 ± 0.66 µM | Metabolism rate (glucuronidation) (rUGT1A10): too low to be biologically relevant
SMILES: COc1c(OCCCCN2CCCC2)cc(O)c2c(=O)cc(-c3ccccc3)oc12 [GL-V9]
